# Experiments:
# [1] = test system: SMN protein in SMA patient fibroblast cells (GM03813); assay: SMN protein assay in cultured cells (SMN HTRF); type: cell-based; details: Homo sapiens, SMA Type 1 patient fibroblasts, 48 hours; for EC (1.5-fold): 7-point concentration curve, 1.5 times SMN protein vs vehicle, read-out: EC1.5x SMN protein (EC1.5x concentration for SMN protein expression); for maximal fold induction: fold increase relative to vehicle control, read-out: max. fold increase of SMN protein
# Excerpt: The term “EC1.5x concentration for SMN protein expression” (or “EC1.5x SMN protein”) is defined as that concentration of test compound that is effective in producing 1.5 times the amount of SMN protein in an SMA patient fibroblast cell compared to the amount produced from the vehicle control.
# The SMN HTRF (homogeneous time resolved fluorescence) assay is used to quantify the level of SMN protein in SMA patient fibroblast cells treated with test compounds. Materials used and respective sources are listed below in Table 4.
# Cells are thawed and cultured in DMEM-10% FBS for 72 hours. Cells are trypsinized, counted and re-suspended to a concentration of 25,000 cells/mL in DMEM-10% FBS. The cell suspensions are plated at 5,000 cells per well in a 96 well microtiter plate and incubated for 3 to […]. Test compounds are serially diluted 3.16-fold in 100% DMSO to generate a 7-point concentration curve. 1 μL of test compound solution is transferred to cell-containing wells and cells are incubated for 48 hours in a cell culture incubator (37° C., 5% CO2, […]). Triplicate samples are set up for each test compound concentration. After 48 hours, the supernatant is removed from the wells and 25 μL of the RIPA lysis buffer, containing protease inhibitors, is added to the wells and incubated with shaking at room temperature for 1 hour. 25 μL of the diluent is added and then 35 μL of the resulting lysate is transferred to a 384-well plate, where each well contains 5 μL of the antibody solution (1:100 dilution of anti-SMN d2 and anti-SMN kryptate in SMN reconstitution buffer). The plate is centrifuged for 1 minute to bring the solution to the bottom of the wells, then incubated overnight at room temperature. Fluorescence for each well of the plate at 665 nm and 620 nm is measured on an EnVision multilabel plate reader (Perkin-Elmer).
# The normalized fluorescence signal is calculated for each sample, Blank and vehicle control well by dividing the signal at 665 nm by the signal at 620 nm. Normalizing the signal accounts for possible fluorescence quenching due to the matrix effect of the lysate. The ΔF value (a measurement of SMN protein abundance as a percent value) for each sample well is calculated by subtracting the normalized average fluorescence for the Blank control wells from the normalized fluorescence for each sample well, then dividing this difference by the normalized average fluorescence for the Blank control wells and multiplying the resulting value by 100. The ΔF value for each sample well represents the SMN protein abundance from test compound-treated samples. The ΔF value for each sample well is divided by the ΔF value for the vehicle control wells to calculate the fold increase in SMN protein abundance relative to the vehicle control. Table 5 provides EC1.5x concentrations for SMN protein expression that was obtained from the 7-point concentration data generated according to the above procedure for particular compounds of the present invention.
# Table 6 provides the maximum fold increase of SMN protein that was obtained from the 7-point concentration data generated according to the above procedure for particular compounds of the present invention
# [2] = test system: full length SMN2 minigene mRNA (HEK293H cells stably transfected with SMN2-A minigene); assay: SMN2 minigene mRNA splicing RT-qPCR assay in cultured cells; type: cell-based; details: Homo sapiens, HEK293-H, 24 hours, 7-point concentration curve, 1.5-fold increase relative to vehicle, read-out: EC1.5x minigene (EC1.5x concentration for production of full length SMN2 minigene mRNA)
# Excerpt: The term “EC1.5x concentration for production of full length SMN2 minigene mRNA” (or “EC1.5x minigene”) is defined as that concentration of test compound that 1 s effective m increasing the amount of full length SMN2 minigene mRNA to a level 1.5-fold greater relative to that in vehicle-treated cells.
# The reverse transcription-quantitative PCR-based (RT-qPCR) assay is used to quantify the level of the full length SMN2 minigene (referred to herein by the term “FL SMN2mini”) mRNA containing SMN2 exon 7 in a HEK293H cell line stably transfected with said minigene and treated with a test compound. Materials used and respective sources are listed below in Table 1.
# The SMN2-A minigene construct was prepared as described in International Patent Application WO2009/151546A1 page 145 paragraph [00400] to page 147 paragraph [00412](incl. FIG. 1 and FIG. 3 therein).
# HEK293H cells stably transfected with the SMN2-A minigene construct (10,000 cells/well) are seeded in 200 μL of cell culture medium (DMEM plus 10% FBS, with 200 μg/mL hygromycin) in 96-well flat-bottom plates and the plate is immediately swirled to ensure proper dispersal of cells and the formation of an even monolayer of cells. Cells are allowed to attach for 6 hours. Test compounds are serially diluted 3.16-fold in 100% DMSO to generate a 7-point concentration curve. A solution of test compound (1 μL, 200× in DMSO) is added to each cell-containing well and the plate is incubated for 24 hours in a cell culture incubator (37° C., 5% CO2, 100% relative humidity). 2 replicates are prepared for each test compound concentration. The cells are then lysed in the Cells-To-Ct lysis buffer and the lysate is stored at −80° C.
# Full length SMN2-A minigene and GAPDH mRNA are quantified using the primers and probes referenced in Table 2. Primer SMN Forward A (SEQ ID NO.1) hybridizes to a nucleotide sequence in exon 7 (nucleotide 22 to nucleotide 40), primer SMN Reverse A (SEQ ID NO.2) hybridizes to a nucleotide sequence in the coding sequence of Firefly luciferase, SMN Probe A (SEQ ID NO.3) hybridizes to a nucleotide sequence in exon 7 (nucleotide 50 to nucleotide 54) and exon 8 (nucleotide 1 to nucleotide 21). The combination of these three oligonucleotides detects only SMN1 or SMN2 minigenes (RT-qPCR) and will not detect endogenous SMN1 or SMN2 genes.
# The SMN forward and reverse primers are used at final concentrations of 0.4 μM. The SMN probe is used at a final concentration of 0.15 μM. The GAPDH primers are used at final concentrations of 0.2 μM and the probe at 0.15 μM.
# The SMN2-minigene GAPDH mix (15 μL total volume) is prepared by combining 7.5 μL of 2×RT-PCR buffer, 0.4 μL of 25×RT-PCR enzyme mix, 0.75 μL of 20×GAPDH primer-probe mix, 4.0075 μL of water, 2 μL of 10-fold diluted cell lysate, 0.06 μL of 100 µM SMN forward primer, 0.06 μL of 100 μM SMN reverse primer, and 0.225 μL of 100 μM SMN probe.
# PCR is carried out at the following temperatures for the indicated time: Step 1: 48° C. (15 min); Step 2: 95° C. (10 min); Step 3: 95° C. (15 sec); Step 4: 60° C. (1 min); then repeat Steps 3 and 4 for a total of 40 cycles.
# Each reaction mixture contains both SMN2-A minigene and GAPDH primers/probe sets (multiplex design), allowing simultaneous measurement of the levels of two transcripts.
# The increase in the abundance of the FL SMN2mini mRNA relative to that in cells treated with vehicle control is determined from real-time PCR data using a modified ΔΔCt method (as described in Livak and Schmittgen, Methods, 2001, 25:402-8). The amplification efficiency E is calculated from the slope of the amplification curve for FL SMN2mini and GAPDH individually. The abundance of FL SMN2mini and GAPDH mRNA are then calculated as (1+E)^−Ct, where Ct is the threshold value for each amplicon. The abundance of FL SMN2mini mRNA is normalized to GAPDH mRNA abundance. […]
Compound,EC (1.5-fold) [1],maximal fold induction [1],EC (1.5-fold) [2]
"Cc1cn2nc(-c3cc(=O)n4cc(N5CCNC6(CC6)C5)cc(C)c4n3)cc(C)c2n1 [Example 28, 7-(4,7-diazaspiro[2.5]octan-7-yl)-2-(2,8-dimethylimidazo[1,2-b]pyridazin-6-yl)-9-methyl-pyrido[1,2-a]pyrimidin-4-one]",0.0497 µM,1.72,0.005 µM
"Cc1cn2nc(-c3cc(=O)n4cc(N5C[C@H](C)N[C@@H](C)C5)ccc4n3)cc(C)c2n1 [Example 29, 2-(2,8-dimethylimidazo[1,2-b]pyridazin-6-yl)-7-[(3S,5S)-3,5-dimethylpiperazin-1-yl]pyrido[1,2-a]pyrimidin-4-one]",0.0021 µM,1.81,0.0003 µM
"Cc1cn2nc(-c3cc(=O)n4cc(N5CC[C@H](N6CCCC6)C5)ccc4n3)cc(C)c2n1 [Example 30, 2-(2,8-dimethylimidazo[1,2-b]pyridazin-6-yl)-7-[(3S)-3-pyrrolidin-1-ylpyrrolidin-1-yl]pyrido[1,2-a]pyrimidin-4-one]",0.0136 µM,1.84,0.003 µM
"Cc1cn2nc(-c3cc(=O)n4cc(N5CC[C@H](N6CCCC6)C5)ccc4n3)ccc2n1 [Example 31, 2-(2-methylimidazo[1,2-b]pyridazin-6-yl)-7-[(3S)-3-pyrrolidin-1-ylpyrrolidin-1-yl]pyrido[1,2-a]pyrimidin-4-one]",0.0277 µM,1.65,0.0067 µM
"Cc1cn2nc(-c3cc(=O)n4cc(N5C[C@H](C)N[C@@H](C)C5)ccc4n3)ccc2n1 [Example 32, 7-[(3S,5S)-3,5-dimethylpiperazin-1-yl]-2-(2-methylimidazo[1,2-b]pyridazin-6-yl)pyrido[1,2-a]pyrimidin-4-one]",0.004 µM,1.88,0.0016 µM
"Cc1cn2nc(-c3cc(=O)n4cc(N5CCN[C@@H](C)C5)cc(C)c4n3)ccc2n1 [Example 33, 9-methyl-2-(2-methylimidazo[1,2-b]pyridazin-6-yl)-7-[(3S)-3-methylpiperazin-1-yl]pyrido[1,2-a]pyrimidin-4-one]",0.004 µM,1.82,0.0005 µM
"Cc1cn2nc(-c3cc(=O)n4cc(N5CCN[C@H](C)C5)cc(C)c4n3)ccc2n1 [Example 34, 9-methyl-2-(2-methylimidazo[1,2-b]pyridazin-6-yl)-7-[(3R)-3-methylpiperazin-1-yl]pyrido[1,2-a]pyrimidin-4-one]",0.0044 µM,1.89,0.0009 µM
"Cc1cn2nc(-c3cc(=O)n4cc(N5C[C@@H](C)N[C@@H](C)C5)cc(C)c4n3)ccc2n1 [Example 35, 7-[(3R,5S)-3,5-dimethylpiperazin-1-yl]-9-methyl-2-(2-methylimidazo[1,2-b]pyridazin-6-yl)pyrido[1,2-a]pyrimidin-4-one]",0.0195 µM,1.79,0.0047 µM
"Cc1cn2nc(-c3cc(=O)n4cc(N5CCNC(C)(C)C5)cc(C)c4n3)ccc2n1 [Example 36, 7-(3,3-dimethylpiperazin-1-yl)-9-methyl-2-(2-methylimidazo[1,2-b]pyridazin-6-yl)pyrido[1,2-a]pyrimidin-4-one]",0.0344 µM,1.77,0.005 µM
"Cc1cn2nc(-c3cc(=O)n4cc(N5CCNC6(CC6)C5)cc(C)c4n3)ccc2n1 [Example 37, 7-(4,7-diazaspiro[2.5]octan-7-yl)-9-methyl-2-(2-methylimidazo[1,2-b]pyridazin-6-yl)pyrido[1,2-a]pyrimidin-4-one]",0.045 µM,1.87,0.0044 µM
"Cc1cn2nc(-c3cc(=O)n4cc(N5C[C@H](C)N[C@@H](C)C5)cc(C)c4n3)ccc2n1 [Example 38, 7-[(3S,5S)-3,5-dimethylpiperazin-1-yl]-9-methyl-2-(2-methylimidazo[1,2-b]pyridazin-6-yl)pyrido[1,2-a]pyrimidin-4-one]",0.0031 µM,1.85,0.0003 µM
"CC[C@@H]1CN(c2ccc3nc(-c4ccc5nc(C)cn5n4)cc(=O)n3c2)CCN1 [Example 39, 7-[(3R)-3-ethylpiperazin-1-yl]-2-(2-methylimidazo[1,2-b]pyridazin-6-yl)pyrido[1,2-a]pyrimidin-4-one]",0.0158 µM,1.81,0.0009 µM
